Among the data in patent US20230348426A1, “OXOPYRROLIDINE FPR2 AGONISTS” (Bristol-Myers Squibb Company, priority 2020, published 2023) are EC50 values, retold here.

One assay has as its target human FPR1 (Homo sapiens (Human), UniProt P21462). The assay is described as follows: FPR1 cyclic adenosine monophosphate (cAMP) assay. It is filed as cell-based. Particulars: CHO cells overexpressing human FPR1; forskolin 10 µM; inhibition of cAMP production; read-out: hFPR1 cAMP EC50. The method, boiled down:
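CHO cells overexpressing human FPR1 (4,000 cells/well) stimulated with 10 µM forskolin plus 200 µM IBMX in the presence of compound (0.020 nM–100 µM, 1% DMSO), 30 min at room temperature. Intracellular cAMP measured by HTRF. Inhibition of cAMP production fitted to a 4-parameter logistic equation.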
Background: Changes in cAMP serve as a functional read-out for many G protein-coupled receptors.

The target in another assay is human FPR2 (Homo sapiens (Human), UniProt P25090). The assay is described as follows: FPR2 cyclic adenosine monophosphate (cAMP) assay. Type of assay: cell-based. Particulars: CHO cells overexpressing human FPR2; forskolin 5 µM; inhibition of cAMP production; read-out: hFPR2 cAMP2 EC50. The method, boiled down:
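CHO cells overexpressing human FPR2 (2,000/well) incubated 30 min at room temperature with compound (0.020 nM–100 µM, 1% DMSO), 5 µM forskolin and 200 µM IBMX.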

By pEC50 is commonly meant the EC50 on a negative log10 scale, so that one unit is a factor of ten.

pEC50: −log10 of the molar value.

human FPR2, sequence (P25090 whole entry): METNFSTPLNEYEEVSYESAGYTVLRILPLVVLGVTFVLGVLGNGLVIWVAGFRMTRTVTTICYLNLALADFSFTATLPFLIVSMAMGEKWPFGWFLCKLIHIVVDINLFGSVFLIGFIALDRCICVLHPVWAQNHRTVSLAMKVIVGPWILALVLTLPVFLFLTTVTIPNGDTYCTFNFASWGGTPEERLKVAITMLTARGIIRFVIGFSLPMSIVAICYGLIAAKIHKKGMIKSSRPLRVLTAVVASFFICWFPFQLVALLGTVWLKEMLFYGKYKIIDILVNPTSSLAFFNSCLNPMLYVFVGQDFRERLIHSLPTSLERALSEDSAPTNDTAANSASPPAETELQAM
human FPR1, sequence (P21462 whole entry): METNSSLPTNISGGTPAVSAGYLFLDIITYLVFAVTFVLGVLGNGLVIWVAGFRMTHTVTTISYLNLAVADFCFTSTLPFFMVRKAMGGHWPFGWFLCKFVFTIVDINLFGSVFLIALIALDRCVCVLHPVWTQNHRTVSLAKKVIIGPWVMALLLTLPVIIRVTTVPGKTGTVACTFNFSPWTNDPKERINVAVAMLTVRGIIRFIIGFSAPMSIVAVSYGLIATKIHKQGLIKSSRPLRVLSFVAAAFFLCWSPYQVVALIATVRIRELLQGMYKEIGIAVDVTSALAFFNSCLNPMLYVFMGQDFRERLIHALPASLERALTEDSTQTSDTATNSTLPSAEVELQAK

In the case of `COc1cc(F)c([C@@H]2CN(c3nccc(NCC(=O)NC4CC4)c3C(F)(F)F)C(=O)[C@H]2NC(=O)c2ccc(Cl)cc2)c(F)c1` [Example 281], the values for the pEC50 on human FPR1 and at human FPR2 were 6.25 and 8.09, respectively.

On to `COc1cc(F)c([C@@H]2CN(c3nccc(N4CCN(S(C)(=O)=O)CC4)c3C(F)(F)F)C(=O)[C@H]2NC(=O)c2ccc(OC(F)F)cc2)c(F)c1` [Example 282], for which the pEC50 at human FPR1 was 6.15; on human FPR2 it was 8.08.

With `COCC(C(=O)N(C)C)n1cccc(N2C[C@@H](c3c(F)cc(OC)cc3F)[C@H](NC(=O)c3ccc(OC(F)(F)F)cc3)C2=O)c1=O` (stereo partly drawn) [Example 283], the figures for the pEC50 on human FPR1 and on human FPR2 were 7.72 and 8.08, respectively.

On to `COc1cc(F)c([C@@H]2CN(c3nc(N4C[C@@H](C)N(C)[C@@H](C)C4)ccc3OC)C(=O)[C@H]2NC(=O)c2ccc(Cl)cc2)c(F)c1` [Example 284], for which the results for the pEC50 at human FPR1 and on human FPR2 were 6.24 and 8.08, respectively.

Regarding `COc1cc(N2C[C@@H](c3c(F)cc(OC)cc3F)[C@H](NC(=O)c3ccc(OC(F)F)cc3)C2=O)nc(N2C[C@@H]3C[C@H]2CN3C)c1` [Example 285], the pEC50 on human FPR1 is 6.66; on human FPR2 it was 8.54.

Turning to `COc1cc(F)c([C@@H]2CN(c3c(Cl)ccn(C)c3=O)C(=O)[C@H]2NC(=O)c2ccc(OC(F)F)cc2)c(F)c1` [Example 286], the pEC50 is 6.89 on human FPR1 and 8.07 at human FPR2.

Regarding `COc1cc(F)c([C@@H]2CN(c3nccc(N4CCN(C)CC4)c3C#N)C(=O)[C@H]2NC(=O)c2ccc(Cl)cc2)c(F)c1` [Example 287], the pEC50 at human FPR1 was 5.34; at human FPR2 it was 8.07.

For `COCCn1ccc(C)c(N2C[C@@H](c3ccc(OC)cc3F)[C@H](NC(=O)c3ccc(OC(F)(F)F)cc3)C2=O)c1=O` [Example 288], the figures for the pEC50 on human FPR1 and at human FPR2 were 9.10 and 8.07, respectively.

As to `CNC(=O)C(C)Nc1ccnc(N2C[C@@H](c3c(F)cc(OC)cc3F)[C@H](NC(=O)c3ccc(Cl)cc3)C2=O)c1C(F)(F)F` (stereo partly drawn) [Example 290], the pEC50 on human FPR1 is 5.74; at human FPR2, 8.07.

Take `COc1cc(F)c([C@@H]2CN(c3c(C)ccn(C)c3=O)C(=O)[C@H]2NC(=O)c2ccc(OC(F)(F)F)cc2)c(F)c1` [Example 291]: the figures for the pEC50 on human FPR1 and at human FPR2 were 8.18 and 8.06, respectively.

With `COCCn1cccc(N2C[C@@H](c3c(F)cc(OC)cc3F)[C@H](NC(=O)c3ccc(C)cc3)C2=O)c1=O` [Example 292], the results for the negative logarithm of the EC50 (pEC50) on human FPR1 and at human FPR2 were 6.02 and 8.06, respectively.

Consider `COCC(CO)n1cccc(N2C(=O)[C@@H](NC(=O)c3ccc(OC(F)(F)F)cc3)[C@H](c3c(F)cc(OC)cc3F)[C@@H]2C)c1=O` (stereo partly drawn) [Example 293], for which the pEC50 on human FPR1 was 7.36; at human FPR2, 8.06.

Take `COc1cc(F)c([C@@H]2CN(c3c(C)ccn(CC(O)C(F)(F)F)c3=O)C(=O)[C@H]2NC(=O)c2ccc(OC(F)F)cc2)c(F)c1` (stereo partly drawn) [Example 294]: the pEC50 on human FPR1 was 8.04; at human FPR2 it was 8.06.

For the compound `COCC(C(=O)N(C)C)n1ccc(C)c(N2C[C@@H](c3ccc(OC)cc3)[C@H](NC(=O)c3ccc(OC(F)F)cc3)C2=O)c1=O` (stereo partly drawn) [Example 295], the values for the pEC50 on human FPR1 and on human FPR2 were 9.22 and 8.05, respectively.

As for `COc1cc(F)c([C@@H]2CN(c3c(C)ccn(CC(OC)C(F)(F)F)c3=O)C(=O)[C@H]2NC(=O)c2ccc(OC(F)(F)F)cc2)c(F)c1` (stereo partly drawn) [Example 297], the pEC50 on human FPR1 is 10.00; on human FPR2, 8.05.

Turning to `COc1cc(F)c([C@@H]2CN(c3cccn(C4CCOC4)c3=O)C(=O)[C@H]2NC(=O)c2ccc(OC(F)(F)F)cc2)c(F)c1` (stereo partly drawn) [Example 298], the pEC50 on human FPR1 is 8.07; on human FPR2, 8.05.

Regarding `COc1cc(F)c([C@@H]2CN(c3cc(NC(C)=O)cn(C)c3=O)C(=O)[C@H]2NC(=O)c2ccc(Cl)cc2)c(F)c1` [Example 299], the results for the pEC50 at human FPR1 and on human FPR2 were 5.72 and 8.04, respectively.

Turning to `COc1cc(F)c([C@@H]2CN(c3cccnn3)C(=O)[C@H]2NC(=O)c2ccc(OC(F)F)cc2)c(F)c1` [Example 300], the pEC50 at human FPR1 was 6.44; on human FPR2 it was 8.03.

Turning to `COc1cc(F)c([C@H]2[C@H](NC(=O)c3ccc(OC(F)(F)F)cc3)C(=O)N(c3cccn(CCO)c3=O)[C@H]2C)c(F)c1` [Example 301], the pEC50 at human FPR1 was 6.82; at human FPR2 it was 8.03.

Consider `COCCn1cccc(N2C[C@@H](c3c(F)cc(OC)cc3F)[C@H](NC(=O)c3ccc(OC(F)(F)F)cc3)C2=O)c1=O` [Example 302], for which the figures for the pEC50 on human FPR1 and on human FPR2 were 7.66 and 8.00, respectively.

As for `COc1cc(F)c([C@@H]2CN(c3nc(N4CCN(C)CC4)ccc3OC)C(=O)[C@H]2NC(=O)c2ccc(OC(F)F)cc2)c(F)c1` [Example 303], the figures for the pEC50 at human FPR1 and at human FPR2 were 6.41 and 8.02, respectively.

Regarding `COc1cc(F)c([C@@H]2CN(c3cccn(C4COC4)c3=O)C(=O)[C@H]2NC(=O)c2ccc(OC(F)F)cc2)c(F)c1` [Example 304], the figures for the pEC50 at human FPR1 and at human FPR2 were 7.05 and 8.02, respectively.

With `COc1cc(F)c([C@@H]2CN(c3cccnc3P(C)(C)=O)C(=O)[C@H]2NC(=O)c2ccc(Cl)cc2)c(F)c1` [Example 305], the pEC50 at human FPR1 is 5.89; at human FPR2 it was 8.02.

As to `COc1cc(F)c([C@@H]2CN(c3cccn(CCN4CCS(=O)(=O)CC4)c3=O)C(=O)[C@H]2NC(=O)c2ccc(OC(F)F)cc2)c(F)c1` [Example 306], the pEC50 at human FPR1 was 6.60; at human FPR2, 8.01.

Regarding `COCC(CO)n1cccc(N2C[C@@H](c3ccc(Cl)cc3)[C@H](NC(=O)c3ccc(OC(F)F)cc3)C2=O)c1=O` (stereo partly drawn) [Example 307], the results for the pEC50 at human FPR1 and at human FPR2 were 8.74 and 8.00, respectively.

Turning to `COc1cc(F)c([C@@H]2CN(c3cccn(CC(C)(C)O)c3=O)C(=O)[C@H]2NC(=O)c2ccc(OC(F)F)cc2)c(F)c1` [Example 308], the pEC50 on human FPR1 was 6.74; at human FPR2 it was 8.00.

For the compound `COc1cc(F)c([C@@H]2CN(c3c(C)ccn(C)c3=O)C(=O)[C@H]2NC(=O)c2ccc(OC(F)F)cc2)c(F)c1` [Example 310], the results for the pEC50 on human FPR1 and at human FPR2 were 7.17 and 8.00, respectively.

Regarding `COc1cc(F)c([C@@H]2CN(c3c(C(F)(F)F)ccn(C)c3=O)C(=O)[C@H]2NC(=O)c2ccc(OC(F)F)cc2)c(F)c1` [Example 311], the pEC50 at human FPR1 was 5.72; on human FPR2 it was 8.00.

For `COc1ccc([C@@H]2CN(c3c(C)ccn(CC4CC4)c3=O)C(=O)[C@H]2NC(=O)c2ccc(OC(F)(F)F)cc2)c(F)c1` [Example 312], the pEC50 is 9.30 at human FPR1 and 8.00 at human FPR2.

On to `COc1cc(F)c([C@@H]2CN(c3nc(C(C)(C)O)ccc3F)C(=O)[C@H]2NC(=O)c2ccc(Cl)cc2)c(F)c1` [Example 313], for which the figures for the pEC50 at human FPR1 and on human FPR2 were 5.27 and 8.00, respectively.

For the compound `COc1cc(F)c([C@@H]2CN(c3c(C)ccn(CC(OC)C(F)(F)F)c3=O)C(=O)[C@H]2NC(=O)c2ccc(OC(F)F)cc2)c(F)c1` (stereo partly drawn) [Example 314], the pEC50 is 9.40 on human FPR1 and 8.00 at human FPR2.

For `COCC(CO)n1cccc(N2C[C@@H](c3ccc(OC)cc3)[C@H](NC(=O)c3ccc(OC(F)F)cc3)C2=O)c1=O` (stereo partly drawn) [Example 315], the pEC50 on human FPR1 was 8.02; at human FPR2, 8.00.

Consider `COc1cc(F)c([C@@H]2CN(c3nc(C4CCOCC4)ccc3F)C(=O)[C@H]2NC(=O)c2ccc(OC(F)F)cc2)c(F)c1` [Example 316], for which the results for the pEC50 at human FPR1 and on human FPR2 were 7.02 and 8.00, respectively.
